Data reported in patent US20240358693A1, “METHODS OF TREATING PAIN” (Aisa Pharma, Inc., priority 2023, published 2024).

Tested on: participants with SSc-RP
Assay: Average duration of weekly RP attacks (minutes)
Format: in vivo, human
Text: The absolute change in average duration of weekly RP attacks from baseline to the end of each dosing period was and will be a secondary outcome variable. The sponsor-developed participant-informed diary was and will be used to record data. Average duration of weekly RP attacks is defined as the total duration of RP attacks divided by total number of RP attacks within the last 7 days of each dosing period. Total duration of RP attacks during the last 7 days of screening period divided by the total number of RP attacks will be used as baseline for the analysis of all periods. The variable will be calculated similar to frequency data as before.

[1] = Cilnidipine 20 mg, Excluding Outliers, ITT Population - Part A
[2] = Cilnidipine 20 mg, Excluding Outliers, by Baseline RCS, subgroup 1, ITT Population - Part A
[3] = Cilnidipine 20 mg, by Baseline RCS, subgroup 1, ITT Population - Part A
[4] = Pooled Cilnidipine 10 mg and Cilnidipine 10 mg + Tadalafil 5 mg, n=3, Excluding Outliers, ITT Part A
[5] = Pooled Cilnidipine 10 mg and Cilnidipine 10 mg + Tadalafil 5 mg, n=3, ITT Part A
[6] = Pooled Cilnidipine 10 mg and Cilnidipine 10 mg + Tadalafil 5 mg, Baseline RCS subgroup 1 (unnamed), ITT Part A
[7] = Pooled Cilnidipine 10 mg and Cilnidipine 10 mg + Tadalafil 5 mg, Baseline RCS subgroup 2 (unnamed), ITT Part A
[8] = Pooled Cilnidipine 10 mg and Cilnidipine 10 mg + Tadalafil 5 mg, Excluding Outliers, Baseline RCS subgroup 1 (unnamed), ITT Part A
[9] = Pooled Cilnidipine 10 mg and Cilnidipine 10 mg + Tadalafil 5 mg, Excluding Outliers, Baseline RCS subgroup 2 (unnamed), ITT Part A
[10] = Pooled Cilnidipine 10 mg and Cilnidipine 10 mg + Tadalafil 5 mg, Excluding Outliers, ITT Population - Part A
[11] = Pooled Cilnidipine 10 mg and Cilnidipine 10 mg + Tadalafil 5 mg, Excluding Outliers, by Baseline RCS, subgroup 1, ITT Population - Part A

SMILES: COCCOC(=O)C1=C(C)NC(C)=C(C(=O)OC/C=C/c2ccccc2)C1c1cccc([N+](=O)[O-])c1 (centres unmarked) [Cilnidipine, cilnidipine]
- Average Duration of Weekly RP Attacks (All Attacks) Change from Baseline, Median [1]: -1.09 min
- Average Duration of Weekly RP Attacks (All Attacks) Percent Change from Baseline, Mean [1]: −24.97%
- Average Duration of Weekly RP Attacks (All Attacks) Percent Change from Baseline, Median [1]: −24.97%
- Average Duration of Weekly RP Attacks (All Attacks), Mean [1]: 16.73 min
- Average Duration of Weekly RP Attacks (All Attacks), Median [1]: 16.73 min
- Average Duration of Weekly RP Attacks (All Attacks) Change from Baseline, Mean [2]: -1.09 min
- Average Duration of Weekly RP Attacks (All Attacks) Change from Baseline, Median [2]: -1.09 min
- Average Duration of Weekly RP Attacks (All Attacks) Percent Change from Baseline, Mean [2]: −24.97%
- Average Duration of Weekly RP Attacks (All Attacks) Percent Change from Baseline, Median [2]: −24.97%
- Average Duration of Weekly RP Attacks (All Attacks), Mean [2]: 16.73 min
- Average Duration of Weekly RP Attacks (All Attacks), Median [2]: 16.73 min
- Average Duration of Weekly RP Attacks (All Attacks) Change from Baseline, Mean (Cilnidipine 20 mg, ITT Part A): -1.09 min
- Average Duration of Weekly RP Attacks (All Attacks) Change from Baseline, Median (Cilnidipine 20 mg, ITT Part A): -1.09 min
- Average Duration of Weekly RP Attacks (All Attacks) Percent Change from Baseline, Mean (Cilnidipine 20 mg, ITT Part A): −24.97%
- Average Duration of Weekly RP Attacks (All Attacks) Percent Change from Baseline, Median (Cilnidipine 20 mg, ITT Part A): −24.97%
- Average Duration of Weekly RP Attacks (All Attacks), Mean (Cilnidipine 20 mg, ITT Part A): 16.73 min
- Average Duration of Weekly RP Attacks (All Attacks), Median (Cilnidipine 20 mg, ITT Part A): 16.73 min
- Average Duration of Weekly RP Attacks (All Attacks) Change from Baseline, Mean [3]: -1.09 min
- Average Duration of Weekly RP Attacks (All Attacks) Change from Baseline, Median [3]: -1.09 min
- Average Duration of Weekly RP Attacks (All Attacks) Percent Change from Baseline, Mean [3]: −24.97%
- Average Duration of Weekly RP Attacks (All Attacks) Percent Change from Baseline, Median [3]: −24.97%
- Average Duration of Weekly RP Attacks (All Attacks), Mean [3]: 16.73 min
- Average Duration of Weekly RP Attacks (All Attacks), Median [3]: 16.73 min
- Duration (Cilnidipine (20 mg) (n = 3)): −20%
- Mean % reduction in duration (Cilnidipine (20 mg) (n = 3)): 20.0%
- Mean duration of attack at baseline (Cilnidipine (20 mg) (n = 3)): 19.4
- Average Duration of Weekly Symptomatic RP Attacks, Change from Baseline, Mean [4]: -12.11 min
- Average Duration of Weekly Symptomatic RP Attacks, Change from Baseline, Median [4]: -16.74 min
- Average Duration of Weekly Symptomatic RP Attacks, Mean [4]: 29.46 min
- Average Duration of Weekly Symptomatic RP Attacks, Median [4]: 31.64 min
- Average Duration of Weekly Symptomatic RP Attacks, Percent Change from Baseline, Mean [4]: −22.40%
- Average Duration of Weekly Symptomatic RP Attacks, Percent Change from Baseline, Median [4]: −33.84%
- Average Duration of Weekly Symptomatic RP Attacks, Change from Baseline, Mean [5]: -12.11 min
- Average Duration of Weekly Symptomatic RP Attacks, Change from Baseline, Median [5]: -16.74 min
- Average Duration of Weekly Symptomatic RP Attacks, Mean [5]: 29.46 min
- Average Duration of Weekly Symptomatic RP Attacks, Median [5]: 31.64 min
- Average Duration of Weekly Symptomatic RP Attacks, Percent Change from Baseline, Mean [5]: −22.40%
- Average Duration of Weekly Symptomatic RP Attacks, Percent Change from Baseline, Median [5]: −33.84%
- Average Duration of Weekly Symptomatic RP Attacks, Change from Baseline, Mean [6]: -8.26 min
- Average Duration of Weekly Symptomatic RP Attacks, Change from Baseline, Median [6]: -8.26 min
- Average Duration of Weekly Symptomatic RP Attacks, Mean [6]: 24.82 min
- Average Duration of Weekly Symptomatic RP Attacks, Median [6]: 24.82 min
- Average Duration of Weekly Symptomatic RP Attacks, Percent Change from Baseline, Mean [6]: −16.67%
- Average Duration of Weekly Symptomatic RP Attacks, Percent Change from Baseline, Median [6]: −16.67%
- Average Duration of Weekly Symptomatic RP Attacks, Change from Baseline, Mean [7]: -19.82 min
- Average Duration of Weekly Symptomatic RP Attacks, Change from Baseline, Median [7]: -19.82 min
- Average Duration of Weekly Symptomatic RP Attacks, Mean [7]: 38.75 min
- Average Duration of Weekly Symptomatic RP Attacks, Median [7]: 38.75 min
- Average Duration of Weekly Symptomatic RP Attacks, Percent Change from Baseline, Mean [7]: −33.84%
- Average Duration of Weekly Symptomatic RP Attacks, Percent Change from Baseline, Median [7]: −33.84%
- Average Duration of Weekly Symptomatic RP Attacks, Change from Baseline, Mean [8]: -8.26 min
- Average Duration of Weekly Symptomatic RP Attacks, Change from Baseline, Median [8]: -8.26 min
- Average Duration of Weekly Symptomatic RP Attacks, Mean [8]: 24.82 min
- Average Duration of Weekly Symptomatic RP Attacks, Median [8]: 24.82 min
- Average Duration of Weekly Symptomatic RP Attacks, Percent Change from Baseline, Mean [8]: −16.67%
- Average Duration of Weekly Symptomatic RP Attacks, Percent Change from Baseline, Median [8]: −16.67%
- Average Duration of Weekly Symptomatic RP Attacks, Change from Baseline, Mean [9]: -19.82 min
- Average Duration of Weekly Symptomatic RP Attacks, Change from Baseline, Median [9]: -19.82 min
- Average Duration of Weekly Symptomatic RP Attacks, Mean [9]: 38.75 min
- Average Duration of Weekly Symptomatic RP Attacks, Median [9]: 38.75 min
- Average Duration of Weekly Symptomatic RP Attacks, Percent Change from Baseline, Mean [9]: −33.84%
- Average Duration of Weekly Symptomatic RP Attacks, Percent Change from Baseline, Median [9]: −33.84%
- Average Duration of Weekly RP Attacks (All Attacks) Change from Baseline, Mean [10]: -9.54 min
- Average Duration of Weekly RP Attacks (All Attacks) Change from Baseline, Median [10]: -8.48 min
- Average Duration of Weekly RP Attacks (All Attacks) Percent Change from Baseline, Mean [10]: −19.10%
- Average Duration of Weekly RP Attacks (All Attacks) Percent Change from Baseline, Median [10]: −21.20%
- Average Duration of Weekly RP Attacks (All Attacks), Mean [10]: 27.90 min
- Average Duration of Weekly RP Attacks (All Attacks), Median [10]: 31.52 min
- Average Duration of Weekly RP Attacks (All Attacks) Change from Baseline, Mean [11]: -4.13 min
- Average Duration of Weekly RP Attacks (All Attacks) Change from Baseline, Median [11]: -4.13 min
- Average Duration of Weekly RP Attacks (All Attacks) Percent Change from Baseline, Mean [11]: −9.97%
- Average Duration of Weekly RP Attacks (All Attacks) Percent Change from Baseline, Median [11]: −9.97%
- Average Duration of Weekly RP Attacks (All Attacks), Mean [11]: 24.76 min
- Average Duration of Weekly RP Attacks (All Attacks), Median [11]: 24.76 min
